Test results from US10045990B2, “ERBB4 inhibitors and methods of use thereof” (Arizona Board of Regents on behalf of Arizona State …, priority 2015, dated 2018).
Read-outs that look alike come from different tables or passages of the source.

Assays:
H661 = assay: cell growth / viable cell count in ERBB4-overexpressing, BTK-negative cell line; type: cell-based, human
ERBB4 = ERBB4 (Homo sapiens, UniProt Q15303); assay: radioactive kinase assay with purified kinase; type: biochemical; details: 1 uM, radioactive ATP (FIG. 3A)
Method: (§1) First, radioactive kinase assays were performed with purified protein kinases incubated with radioactive ATP and increasing concentrations of kinase inhibitors. The kinase activity was measured through the levels of radioactive phosphorylation present in each kinase.

BTK [1] = target: T1, BTK (Homo sapiens, UniProt Q06187); details: 1 uM, radioactive ATP (FIG. 3A)
Method: as §1

H146 = assay: cell growth / viable cell count in ERBB4-overexpressing, BTK-negative cell line; type: cell-based, human
BTK [2] = target: T1, BTK; details: DMSO = 100
Method: (§2) Protein microarrays were generated using NAPPA (Nucleic acid programmable protein array) methodology, which permits the use of freshly expressed proteins for functional assays (FIG. 1). In NAPPA, cDNAs coding for the target of interest are cloned into an expression vector, which generates a fusion (Halo Tag, GST, etc.) to the target, and spotted onto a glass slide. Then to each spot, a HeLa cell in vitro transcription-translation reagent is added, whereby the fusion gene is transcribed into mRNA and translated. The nascent proteins are captured to the slide with antibody to the fusion partner (i.e., HaloTag-ligand, α-GST antibody) that is spotted adjacent to the DNA during the manufacture of the array. This method allows for up to thousands of protein targets to be arrayed. NAPPA microarrays can be expressed using an in vitro transcription and translation system (IVTT), and the anti-tag antibody captures newly synthesized proteins. Following expression, the microarrays were treated with phosphatase to remove any phosphorylation that occurred during the expression of the proteins.
(§3) De-phosphorylated arrays were then incubated with kinase buffer containing various concentrations of ATP and/or kinase inhibitors. The kinase activity was measured as end point assay using anti-phopho tyrosine antibody linked to cy3 as the detecting agent (FIG. 2). The data was normalized using positive control features present in each array.
(§4) NAPPA kinase microarrays we generated with virtually all protein-tyrosine kinases from the human genome. The coding sequence for each tyrosine kinase was clone into an expression plasmid and immobilized on the microarray surface, with one protein kinase per feature. After the microarray was expressed, any phosphorylation that occurred during the expression step was removed by a treatment with lambda phosphatase.
(§5) Unphosphorylated microarrays were then incubated with a kinase buffer (25 mM Tris-HCl (pH 7.5), 5 mM beta-glycerophosphate, 2 mM dithiothreitol (DTT), 0.1 mM Na3VO4, 10 mM MgCl2) supplemented with […] and/or kinase inhibitors (concentration ranging from 0-10 uM). The kinase autophosphorylation activity was measured through the levels of phosphorylation present in each feature and was detected by phospho-tyrosine antibody. […] Staurosporine is a pan kinase inhibitor used as a control.
(§6) NAPPA arrays suitable for measuring the activity of protein kinases and evaluating the selectivity of kinase inhibitors were produced using a variation of the published protocol (Proteomics Clin Appl. 2013 June; 7(5-6):372-7.). Briefly, NAPPA printing mix was prepared with plasmid DNA coding for genes of interest, anti-flag antibody, cross-linker and poly-lysine. […]

Abl1 = Abl1 (Homo sapiens, UniProt P00519); details: DMSO = 100
Method: as §2, §3, §4, §5, §6

COV434 = details: 1 uM, 7 days, Trypan blue exclusion, vs DMSO
H716 = assay: cell growth / viable cell count in ERBB4-overexpressing, BTK-negative cell line; type: cell-based, human
YES1 = target: T2, YES1 (Homo sapiens, UniProt P07947); assay: NAPPA array kinase autophosphorylation assay; type: biochemical; details: Yes1 (second entry), DMSO = 100
T2 construct: made in house; host or cells: human cell-free coupled transcription-translation (1-Step Human Coupled IVT), on the slide

KLE = assay: cell growth / viable cell count in ERBB4-overexpressing, BTK-negative cell line; type: cell-based, human; set-up: % Survival: dose or concentration left out as unconfirmed
H522 = assay: as above; type: cell-based, human
EPHA7 = target: T3, EPHA7 (Homo sapiens, UniProt Q15375); assay: NAPPA array kinase autophosphorylation assay; type: biochemical; details: DMSO = 100
T3 construct: made in house; host or cells: human cell-free coupled transcription-translation (1-Step Human Coupled IVT), on the slide
Method: as §2, §3, §4, §5
(§7) NAPPA arrays suitable for measuring the activity of protein kinases and evaluating the selectivity of kinase inhibitors were produced using a variation of the published protocol (Proteomics Clin Appl. 2013 June; 7(5-6):372-7.). Briefly, NAPPA printing mix was prepared with plasmid DNA coding for genes of interest, anti-flag antibody, cross-linker and poly-lysine. Samples were agitated for 90 minutes at 1200 rpm at RT and printed in quadruplicate in aminopropyltriethoxysilane coated glass slides.
(§8) Arrays were stored in an airtight container at room temperature until use.

FGFR4 = target: T4, FGFR4 (Homo sapiens, UniProt P22455); assay: NAPPA array kinase autophosphorylation assay; type: biochemical; details: DMSO = 100
T4 construct: made in house; host or cells: human cell-free coupled transcription-translation (1-Step Human Coupled IVT), on the slide
Method: as §2, §3, §4, §5, §7, §8

EPHA3 = target: T5, EPHA3 (Homo sapiens, UniProt P29320); assay: NAPPA array kinase autophosphorylation assay; type: biochemical; details: DMSO = 100
T5 construct: made in house; host or cells: human cell-free coupled transcription-translation (1-Step Human Coupled IVT), on the slide
Method: as §2, §3, §4, §5, §7, §8

FGFR1 = target: T6, FGFR1 (Homo sapiens, UniProt P11362); assay: NAPPA array kinase autophosphorylation assay; type: biochemical; details: DMSO = 100
T6 construct: made in house; host or cells: human cell-free coupled transcription-translation (1-Step Human Coupled IVT), on the slide
Method: as §2, §3, §4, §5, §7, §8

EPHA1 = target: T7, EPHA1 (Homo sapiens, UniProt P21709); assay: NAPPA array kinase autophosphorylation assay; type: biochemical; details: DMSO = 100
T7 construct: made in house; host or cells: human cell-free coupled transcription-translation (1-Step Human Coupled IVT), on the slide
Method: as §2, §3, §4, §5, §7, §8

[3] = 0, 1 nM, 10 nM, 100 nM, 1 uM or 10 uM for 7 days
[4] = 1 uM, 7 days, Trypan blue exclusion, vs DMSO
[5] = percentage of viable cells after a 24-hour treatment of 1 nM ibrutinib

T1 sequence (Q06187 whole entry): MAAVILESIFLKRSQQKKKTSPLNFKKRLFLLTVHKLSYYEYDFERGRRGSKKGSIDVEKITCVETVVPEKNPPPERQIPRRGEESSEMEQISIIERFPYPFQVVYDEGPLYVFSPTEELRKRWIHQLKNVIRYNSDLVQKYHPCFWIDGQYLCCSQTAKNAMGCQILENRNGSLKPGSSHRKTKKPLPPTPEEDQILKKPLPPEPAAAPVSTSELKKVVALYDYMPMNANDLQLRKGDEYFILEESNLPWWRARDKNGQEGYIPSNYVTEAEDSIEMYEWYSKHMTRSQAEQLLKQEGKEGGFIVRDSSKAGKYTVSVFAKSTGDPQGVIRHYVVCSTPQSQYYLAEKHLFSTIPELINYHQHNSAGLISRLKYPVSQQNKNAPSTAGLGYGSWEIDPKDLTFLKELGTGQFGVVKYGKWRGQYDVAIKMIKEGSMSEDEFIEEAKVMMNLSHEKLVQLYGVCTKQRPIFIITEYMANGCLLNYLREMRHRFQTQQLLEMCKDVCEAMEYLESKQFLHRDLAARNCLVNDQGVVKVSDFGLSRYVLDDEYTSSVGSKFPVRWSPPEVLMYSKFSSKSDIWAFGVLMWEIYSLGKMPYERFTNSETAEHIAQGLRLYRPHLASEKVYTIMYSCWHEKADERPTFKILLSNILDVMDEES
Chain of Abl1 (P00519 whole entry): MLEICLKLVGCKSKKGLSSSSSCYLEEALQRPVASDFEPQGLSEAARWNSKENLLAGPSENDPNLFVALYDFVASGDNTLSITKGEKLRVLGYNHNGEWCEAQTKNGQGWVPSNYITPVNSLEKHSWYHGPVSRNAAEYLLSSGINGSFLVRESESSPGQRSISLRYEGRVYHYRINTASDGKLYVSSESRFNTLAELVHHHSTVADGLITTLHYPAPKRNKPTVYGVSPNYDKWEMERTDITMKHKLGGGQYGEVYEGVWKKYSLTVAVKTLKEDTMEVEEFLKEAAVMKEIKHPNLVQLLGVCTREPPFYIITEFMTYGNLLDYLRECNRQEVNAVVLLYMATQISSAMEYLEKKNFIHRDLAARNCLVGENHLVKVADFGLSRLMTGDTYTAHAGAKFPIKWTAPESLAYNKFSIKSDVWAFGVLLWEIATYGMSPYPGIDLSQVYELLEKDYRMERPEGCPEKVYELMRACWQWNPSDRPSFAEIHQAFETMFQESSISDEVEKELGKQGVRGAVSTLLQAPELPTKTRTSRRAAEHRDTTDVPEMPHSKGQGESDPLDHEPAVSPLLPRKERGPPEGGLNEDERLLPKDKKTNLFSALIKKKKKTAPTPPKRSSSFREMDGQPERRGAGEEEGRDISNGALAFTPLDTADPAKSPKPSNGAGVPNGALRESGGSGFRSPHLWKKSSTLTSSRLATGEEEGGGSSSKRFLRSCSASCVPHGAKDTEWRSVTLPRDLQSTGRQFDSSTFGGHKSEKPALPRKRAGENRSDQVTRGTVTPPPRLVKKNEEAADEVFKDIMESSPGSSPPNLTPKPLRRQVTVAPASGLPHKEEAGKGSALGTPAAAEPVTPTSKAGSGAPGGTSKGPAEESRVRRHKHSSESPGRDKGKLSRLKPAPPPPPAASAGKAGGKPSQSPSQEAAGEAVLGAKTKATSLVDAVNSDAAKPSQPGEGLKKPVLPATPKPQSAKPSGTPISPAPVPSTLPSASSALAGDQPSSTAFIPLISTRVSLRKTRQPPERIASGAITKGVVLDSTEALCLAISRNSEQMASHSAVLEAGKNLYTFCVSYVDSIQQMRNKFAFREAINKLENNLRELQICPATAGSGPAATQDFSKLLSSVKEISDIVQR
T6 sequence (P11362 22-822): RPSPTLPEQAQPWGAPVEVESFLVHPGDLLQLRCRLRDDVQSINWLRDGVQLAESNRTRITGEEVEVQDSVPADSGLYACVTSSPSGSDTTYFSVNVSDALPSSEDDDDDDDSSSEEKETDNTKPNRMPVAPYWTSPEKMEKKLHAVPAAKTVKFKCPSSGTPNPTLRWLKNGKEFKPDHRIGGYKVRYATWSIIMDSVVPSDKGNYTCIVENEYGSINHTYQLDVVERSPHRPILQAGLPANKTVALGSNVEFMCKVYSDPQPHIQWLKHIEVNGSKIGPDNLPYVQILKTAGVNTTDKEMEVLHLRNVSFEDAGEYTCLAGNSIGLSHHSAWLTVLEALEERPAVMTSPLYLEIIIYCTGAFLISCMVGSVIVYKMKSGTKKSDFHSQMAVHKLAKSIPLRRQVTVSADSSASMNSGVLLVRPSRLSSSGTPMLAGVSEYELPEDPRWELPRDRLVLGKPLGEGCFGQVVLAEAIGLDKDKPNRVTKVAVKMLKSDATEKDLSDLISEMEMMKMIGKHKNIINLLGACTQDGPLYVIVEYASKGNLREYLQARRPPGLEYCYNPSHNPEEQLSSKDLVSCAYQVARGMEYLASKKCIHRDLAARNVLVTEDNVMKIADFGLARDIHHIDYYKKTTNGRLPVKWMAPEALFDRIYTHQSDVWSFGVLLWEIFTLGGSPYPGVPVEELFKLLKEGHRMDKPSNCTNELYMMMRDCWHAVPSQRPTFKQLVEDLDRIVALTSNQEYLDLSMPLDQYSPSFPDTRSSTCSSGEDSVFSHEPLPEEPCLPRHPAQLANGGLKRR
T3 sequence (Q15375 28-998): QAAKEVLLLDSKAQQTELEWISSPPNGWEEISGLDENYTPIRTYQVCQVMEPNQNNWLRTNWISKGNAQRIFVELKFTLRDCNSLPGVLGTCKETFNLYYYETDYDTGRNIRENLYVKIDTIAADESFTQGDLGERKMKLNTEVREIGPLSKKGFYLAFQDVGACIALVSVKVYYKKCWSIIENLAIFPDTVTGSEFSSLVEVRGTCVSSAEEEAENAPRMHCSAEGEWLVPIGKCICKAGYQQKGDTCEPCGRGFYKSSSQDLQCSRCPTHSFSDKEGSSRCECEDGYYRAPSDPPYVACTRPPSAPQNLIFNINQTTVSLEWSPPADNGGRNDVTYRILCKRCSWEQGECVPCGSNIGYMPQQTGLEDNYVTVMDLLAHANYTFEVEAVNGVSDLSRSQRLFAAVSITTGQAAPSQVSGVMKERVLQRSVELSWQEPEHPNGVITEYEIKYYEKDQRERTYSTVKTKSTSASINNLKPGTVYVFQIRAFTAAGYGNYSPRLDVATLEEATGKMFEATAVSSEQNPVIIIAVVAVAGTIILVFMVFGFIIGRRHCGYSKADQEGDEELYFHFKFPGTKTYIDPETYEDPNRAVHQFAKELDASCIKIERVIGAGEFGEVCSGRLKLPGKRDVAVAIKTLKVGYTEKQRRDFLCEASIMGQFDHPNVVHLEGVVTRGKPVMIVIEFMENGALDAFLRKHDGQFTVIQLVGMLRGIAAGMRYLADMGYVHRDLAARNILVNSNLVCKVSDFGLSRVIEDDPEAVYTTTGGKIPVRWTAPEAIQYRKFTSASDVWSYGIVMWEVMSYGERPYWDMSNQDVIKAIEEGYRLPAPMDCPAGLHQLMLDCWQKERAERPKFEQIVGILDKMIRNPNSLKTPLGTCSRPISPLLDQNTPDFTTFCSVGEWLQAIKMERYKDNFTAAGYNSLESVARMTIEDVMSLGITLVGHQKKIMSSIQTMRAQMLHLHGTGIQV
T5 sequence (P29320 21-983): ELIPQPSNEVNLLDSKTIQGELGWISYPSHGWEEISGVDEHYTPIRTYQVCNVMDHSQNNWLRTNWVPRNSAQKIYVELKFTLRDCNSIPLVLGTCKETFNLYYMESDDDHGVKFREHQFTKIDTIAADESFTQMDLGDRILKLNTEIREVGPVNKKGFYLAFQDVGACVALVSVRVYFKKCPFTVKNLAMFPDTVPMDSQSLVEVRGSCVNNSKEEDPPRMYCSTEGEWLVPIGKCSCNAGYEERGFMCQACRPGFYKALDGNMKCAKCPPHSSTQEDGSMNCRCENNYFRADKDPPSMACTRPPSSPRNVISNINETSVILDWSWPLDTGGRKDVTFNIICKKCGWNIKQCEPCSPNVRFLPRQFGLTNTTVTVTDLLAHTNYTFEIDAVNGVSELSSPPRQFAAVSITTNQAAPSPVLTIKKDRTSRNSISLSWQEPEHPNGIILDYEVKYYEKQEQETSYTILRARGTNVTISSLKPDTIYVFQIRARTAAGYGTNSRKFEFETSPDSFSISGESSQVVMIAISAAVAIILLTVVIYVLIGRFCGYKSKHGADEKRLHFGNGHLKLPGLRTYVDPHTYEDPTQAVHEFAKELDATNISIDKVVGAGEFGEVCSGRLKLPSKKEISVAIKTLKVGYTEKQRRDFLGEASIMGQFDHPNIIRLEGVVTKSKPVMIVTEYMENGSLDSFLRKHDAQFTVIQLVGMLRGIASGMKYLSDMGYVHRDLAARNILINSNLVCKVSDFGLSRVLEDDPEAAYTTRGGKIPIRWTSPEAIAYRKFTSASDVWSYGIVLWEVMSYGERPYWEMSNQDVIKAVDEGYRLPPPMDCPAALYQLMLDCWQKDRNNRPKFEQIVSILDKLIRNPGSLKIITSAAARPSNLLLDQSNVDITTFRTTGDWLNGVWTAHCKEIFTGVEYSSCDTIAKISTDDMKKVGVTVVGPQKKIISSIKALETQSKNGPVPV
T2 sequence (P07947 whole entry): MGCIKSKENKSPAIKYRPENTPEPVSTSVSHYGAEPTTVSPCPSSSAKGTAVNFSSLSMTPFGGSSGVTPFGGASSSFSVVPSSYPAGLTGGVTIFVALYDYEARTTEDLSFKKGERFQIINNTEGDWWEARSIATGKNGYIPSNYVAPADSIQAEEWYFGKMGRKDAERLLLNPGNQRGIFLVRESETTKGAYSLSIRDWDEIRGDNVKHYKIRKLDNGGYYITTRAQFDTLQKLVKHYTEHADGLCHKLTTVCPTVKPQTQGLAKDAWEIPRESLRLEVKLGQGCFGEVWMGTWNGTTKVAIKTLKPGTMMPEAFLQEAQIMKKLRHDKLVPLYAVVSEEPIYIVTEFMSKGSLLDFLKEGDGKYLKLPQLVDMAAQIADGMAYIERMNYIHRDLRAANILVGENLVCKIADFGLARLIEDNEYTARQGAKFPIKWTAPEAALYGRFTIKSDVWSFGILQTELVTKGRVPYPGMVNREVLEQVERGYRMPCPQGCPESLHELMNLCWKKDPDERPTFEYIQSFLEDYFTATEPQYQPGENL

**Q.** Which results are given for Ibrutinib?
**A.** sensitivity of cell line (H661; [3]): very sensitive; growth inhibition rate (H661; [4]): 72%; % Survival (H661; [5]): 28.2%; activity inhibited (ERBB4): more than 80%; activity inhibited (BTK [1]): more than 80%; growth inhibition rate (H146; H146, 1 uM, 7 days, Trypan blue exclusion, vs DMSO): 0%; % Survival (H146; H146, percentage of viable cells after a 24-hour treatment of 1 nM ibrutinib): 100.0%; sensitivity of cell line (H146; H416, 0, 1 nM, 10 nM, 100 nM, 1 uM or 10 uM for 7 days): apparently resistant; kinase activity (%) (BTK [2]; 0.1 uM Ibrutinib): 38.3%; kinase activity (%) (BTK [2]; 1 uM Ibrutinib): 5.5%; kinase activity (%) (Abl1; 0.1 uM Ibrutinib): 101.5%; kinase activity (%) (Abl1; 1 uM Ibrutinib): 104.3%; growth inhibition rate (COV434): 15%; sensitivity of cell line (H716; [3]): very sensitive; growth inhibition rate (H716; [4]): 75%; % Survival (H716; [5]): 25.5%; kinase activity (%) (YES1; 0.1 uM Ibrutinib): 101.6%; kinase activity (%) (YES1; 1 uM Ibrutinib): 97.6%; sensitivity of cell line (KLE; [3]): very sensitive; growth inhibition rate (KLE; [4]): 73%; % Survival (KLE; percentage of viable cells after ibrutinib): 27.2%; sensitivity of cell line (H522; [3]): very sensitive; growth inhibition rate (H522; [4]): 60%; % Survival (H522; [5]): 41.0%; kinase activity (%) (EPHA7; 0.1 uM Ibrutinib): 92.3%; kinase activity (%) (EPHA7; 1 uM Ibrutinib): 94.9%; kinase activity (%) (FGFR4; 0.1 uM Ibrutinib): 81.5%; kinase activity (%) (FGFR4; 1 uM Ibrutinib): 99.1%; kinase activity (%) (EPHA3; 0.1 uM Ibrutinib): 89.1%; kinase activity (%) (EPHA3; 1 uM Ibrutinib): 101.3%; kinase activity (%) (FGFR1; 0.1 uM Ibrutinib): 98.8%; kinase activity (%) (FGFR1; 1 uM Ibrutinib): 105.8%; kinase activity (%) (EPHA1; 0.1 uM Ibrutinib): 87.2%; kinase activity (%) (EPHA1; 1 uM Ibrutinib): 99.1%
